In one test the test system is β-catenin. Briefly: Western blot of β-catenin in nuclear and cytoplasmic fractions of GT1-7 cells. The following applies: nuclear fraction, FIG. 3D. The test is classed as cell-based, murine. From the text:
Western Blot. Cell lysates was separated on a 6% SDS page gel and transferred to a nitrocellulose membrane. The membrane was blocked for one hour in 5% skim milk dissolved in TBS-T and probed with the following antibodies ([…]): FoxM1 (rabbit, GeneTex), AR: 441 (mouse, Santa Cruz Biotechnology), β-catenin (rabbit 9562, Cell Signaling Technology), p84 (mouse, GeneTex) and actin (mouse, Santa Cruz Biotechnology). Horse radish peroxidase linked secondary antibodies were used along with ECL reagents for visualization. Western blots were quantified using Quantity One analysis software (BioRad).
It has been previously reported that thiostrepton causes decreased levels of FOXM1. Hegde et al, Nat Chem, 3(9):725-31 (2011); Gartel, Front Oncol, 3:150 (2013). […] The nuclear association between FOXM1 and β-catenin increases the transcriptional activity of both factors. Zhang et al, Cancer Cell, 20(4):427-42 (2011). β-catenin is a key AR coactivator in a variety of cells. Yang, J Biol Chem, 277(13):11336-44 (2002); Truica et al, Cancer Res, 60(17):4709-13 (2000). The inventors believed that thiostrepton could inhibit AR activity by limiting access to nuclear β-catenin via FOXM1 depletion. […] As expected, control actin protein was observed primarily in cytoplasmic fraction.
(In general: Immunoblotting shows a protein as a band on a membrane.)

A further test deals with T1, FOXM1 (Rattus norvegicus, UniProt P97691).
T1 construct: from tissue; host or cells: Sprague Dawley rat spinal cord
T1 sequence (P97691 1-759): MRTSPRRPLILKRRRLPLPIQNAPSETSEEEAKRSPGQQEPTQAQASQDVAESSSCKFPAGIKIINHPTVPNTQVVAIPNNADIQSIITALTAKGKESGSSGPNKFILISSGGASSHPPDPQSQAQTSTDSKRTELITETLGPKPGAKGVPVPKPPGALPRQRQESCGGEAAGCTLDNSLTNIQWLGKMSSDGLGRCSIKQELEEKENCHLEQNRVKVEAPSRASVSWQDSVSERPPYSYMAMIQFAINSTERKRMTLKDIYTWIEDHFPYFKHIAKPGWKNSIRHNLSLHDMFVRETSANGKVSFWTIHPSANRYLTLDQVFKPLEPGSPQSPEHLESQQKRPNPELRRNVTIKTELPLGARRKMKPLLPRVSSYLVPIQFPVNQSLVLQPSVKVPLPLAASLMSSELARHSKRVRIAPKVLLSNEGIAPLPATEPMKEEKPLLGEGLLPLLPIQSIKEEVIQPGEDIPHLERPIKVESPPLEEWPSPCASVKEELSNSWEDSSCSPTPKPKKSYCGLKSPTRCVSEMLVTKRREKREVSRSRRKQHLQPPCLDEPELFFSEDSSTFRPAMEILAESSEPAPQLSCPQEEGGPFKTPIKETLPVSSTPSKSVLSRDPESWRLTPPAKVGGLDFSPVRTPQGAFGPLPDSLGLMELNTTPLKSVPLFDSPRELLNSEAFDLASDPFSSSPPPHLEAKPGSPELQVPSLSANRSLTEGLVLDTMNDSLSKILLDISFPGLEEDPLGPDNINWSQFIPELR
The experiment in a line: RT-qPCR of FOXM1 target gene transcripts in spinal cord. It counts as in vivo. To be noted: rats, compared to intact controls, FIG. 5G. The procedure: Animals and Drugs. This study was carried out in strict accordance with the recommendations in the Guide for the Care and Use of Laboratory Animals of the National Institutes of Health. All experiments were performed under the IUCAC approval of City of Hope. Animals were purchased from Jackson Laboratory (Bar Harbor, Main). For the pilot pharmacokinetic experiment, nine male Sprague Dawley rats (n=3) were administered 1, 10, or 100 mg/kg intraperitoneal injections thrice per week for four weeks. One hour following the final dose, blood and spinal fluid were collected and analyzed by mass spectrometry. For the efficacy experiment, rats were divided into 3 groups (n=7) as follows: intact, castrated, and thiostrepton. […] Following a treatment period of 7 days, rats were euthanized and organs harvested, weighed and processed for quantitative RT-PCR.
qRT-PCR. The quantitative RT-PCR method has been described by Jones et al, ACS Chem Biol, 3(7):412-8 (2008). […] Differences between experimental (x) and control (y) samples were normalized to RPL19 transcript levels (androgen unresponsive) and determined with the following calculation: (2^(Ctsgene1-Ctygene1))/(2^(CtxRPL19-CtyRPL19)) One-way analysis of variance was applied to determine statistical significant among groups, where p<0.05 was considered significant. […]
Background: In qPCR the cycle at which signal appears reflects the starting amount.

SMILES strings stand for the structures.

Turning to `C=C(NC(=O)C(=C)NC(=O)c1csc(C2=N[C@@H]3c4csc(n4)[C@H]4NC(=O)c5csc(n5)[C@H]([C@](C)(O)[C@@H](C)O)NC(=O)[C@H]5CSC(=N5)/C(=C/C)NC(=O)[C@H]([C@@H](C)O)NC(=O)c5csc(n5)[C@]3(CC2)NC(=O)[C@H](C)NC(=O)C(=C)NC(=O)[C@H](C)NC(=O)[C@H]([C@@H](C)CC)N[C@@H]2C=Cc3c([C@H](C)O)cc(nc3[C@H]2O)C(=O)O[C@@H]4C)n1)C(N)=O` [thiostrepton], in the test with β-catenin, the “levels of nuclear β-catenin” value is “lower levels”. For the same molecule, at FOXM1, the “transcript levels of FOXM1 target genes Ccndl and Sox2” value was “decreased”.

The values above are taken from patent publication US11167007B2, “FOXM1 modulators and uses thereof” (City of Hope, priority 2016, dated 2021).
